The values that follow come from patent US20020177180A1, “pH-indicator based assay for selective enzymes” (ThermoGen, Inc., priority 1998, published 2002).

Some results are limits rather than exact numbers.

The subject of the first data set is esterase E011. The data set is described as follows: Initial screening of ThermoGen esterases toward esters 1-31 (pH indicator), specific activity. It counts as biochemical. The following applies: 1 mM substrate, pH 7.2, 7 vol % acetonitrile, 25° C. The procedure:
(§1) Initial screening measures the initial rate of hydrolysis of different esters. The rate of reaction was measured by monitoring the release of protons using a pH indicator, 4-nitrophenol. In this assay, the yellow color of the phenoxide disappears as the reaction proceeds. The amount of ester hydrolyzed can be measured quantitatively, as is known in the art.
With `CCOC(=O)C(F)(F)F` [Substrate 17], the “Specific activity, esterase E011” value was 2.7 mmol ester hydrolyzed/min/mg protein.

Regarding `COC(=O)CO` [Substrate 20], the “Specific activity, esterase E011” value is listed as <0.1 mmol ester hydrolyzed/min/mg protein.

For the compound `COC(=O)C(O)c1ccccc1` (stereo not shown) [Substrate 21], the “Specific activity, esterase E011” value is 0.04 mmol ester hydrolyzed/min/mg protein.

Regarding `CC(=O)Oc1ccccc1` [Substrate 26], the “Specific activity, esterase E011” value is 270 mmol ester hydrolyzed/min/mg protein.

For the compound `CCOC(=O)CN.Cl` [Substrate 31], the “Specific activity, esterase E011” value was 0.1 mmol ester hydrolyzed/min/mg protein.

The test system of the next data set is esterase E006. The data set is described as above. It counts as biochemical. The following applies: 1 mM substrate, pH 7.2, 7 vol % acetonitrile, 25° C. On the procedure: as §1
(§2) To survey the substrate selectivity of the ThermoGen esterases, the ability of the enzymes to hydrolyze thirty-one different commercially-available esters, Scheme 1 (FIG. 9, Table 6).
As for `CCOC(=O)C(F)(F)F` [Substrate 17], the “Specific activity, esterase E006” value is given as 1.7 mmol ester hydrolyzed/min/mg protein.

With `COC(=O)CO` [Substrate 20], the “Specific activity, esterase E006” value is recorded as 0.11 mmol ester hydrolyzed/min/mg protein.

Turning to `COC(=O)C(O)c1ccccc1` (stereo not shown) [Substrate 21], the “Specific activity, esterase E006” value is <0.1 mmol ester hydrolyzed/min/mg protein.

For `CC(=O)Oc1ccccc1` [Substrate 26], the “Specific activity, esterase E006” value is reported as 300 mmol ester hydrolyzed/min/mg protein.

As for `CCOC(=O)CN.Cl` [Substrate 31], the “Specific activity, esterase E006” value is <0.1 mmol ester hydrolyzed/min/mg protein.

The next data set has as its system esterase E012. The description is as above. The following applies: 1 mM substrate, pH 7.2, 7 vol % acetonitrile, 25° C. The class given is biochemical. On the procedure:
as §1, §2
With `CCOC(=O)C(F)(F)F` [Substrate 17], the “Specific activity, esterase E012” value is listed as 1200 mmol ester hydrolyzed/min/mg protein.

On to `COC(=O)CO` [Substrate 20], for which the “Specific activity, esterase E012” value is listed as <2 mmol ester hydrolyzed/min/mg protein.

For `COC(=O)C(O)c1ccccc1` (stereo not shown) [Substrate 21], the “Specific activity, esterase E012” value is <2 mmol ester hydrolyzed/min/mg protein.

For the compound `CC(=O)Oc1ccccc1` [Substrate 26], the “Specific activity, esterase E012” value is reported as 30 mmol ester hydrolyzed/min/mg protein.

For `CCOC(=O)CN.Cl` [Substrate 31], the “Specific activity, esterase E012” value is 6.0 mmol ester hydrolyzed/min/mg protein.

For the next data set, the system named is esterase E014. The data set is described as above. The conditions noted are these: 1 mM substrate, pH 7.2, 7 vol % acetonitrile, 25° C. The class given is biochemical. On the procedure: as §1, §2
`CCOC(=O)C(F)(F)F` [Substrate 17]: the “Specific activity, esterase E014” value is listed as 1.4 mmol ester hydrolyzed/min/mg protein.

As for `COC(=O)CO` [Substrate 20], the “Specific activity, esterase E014” value is on record as <0.1 mmol ester hydrolyzed/min/mg protein.

As to `COC(=O)C(O)c1ccccc1` (stereo not shown) [Substrate 21], the “Specific activity, esterase E014” value is reported as <0.1 mmol ester hydrolyzed/min/mg protein.

As to `CC(=O)Oc1ccccc1` [Substrate 26], the “Specific activity, esterase E014” value is given as 150 mmol ester hydrolyzed/min/mg protein.

Consider `CCOC(=O)CN.Cl` [Substrate 31], for which the “Specific activity, esterase E014” value was <0.1 mmol ester hydrolyzed/min/mg protein.

The test system of a further data set is esterase E015. The data set is described as above. The class given is biochemical. The following applies: 1 mM substrate, pH 7.2, 7 vol % acetonitrile, 25° C. On the procedure:
as §1, §2
Take `CCOC(=O)C(F)(F)F` [Substrate 17]: the “Specific activity, esterase E015” value was 190 mmol ester hydrolyzed/min/mg protein.

On to `COC(=O)CO` [Substrate 20], for which the “Specific activity, esterase E015” value is listed as <0.1 mmol ester hydrolyzed/min/mg protein.

`COC(=O)C(O)c1ccccc1` (stereo not shown) [Substrate 21]: the “Specific activity, esterase E015” value is recorded as <0.1 mmol ester hydrolyzed/min/mg protein.

Turning to `CC(=O)Oc1ccccc1` [Substrate 26], the “Specific activity, esterase E015” value is reported as 320 mmol ester hydrolyzed/min/mg protein.

For the compound `CCOC(=O)CN.Cl` [Substrate 31], the “Specific activity, esterase E015” value is reported as <0.1 mmol ester hydrolyzed/min/mg protein.

A further data set relates to esterase E016. The description is as above. The class given is biochemical. The conditions noted are these: 1 mM substrate, pH 7.2, 7 vol % acetonitrile, 25° C. The procedure: as §1, §2
As for `CCOC(=O)C(F)(F)F` [Substrate 17], the “Specific activity, esterase E016” value was 1500 mmol ester hydrolyzed/min/mg protein.

Consider `COC(=O)CO` [Substrate 20], for which the “Specific activity, esterase E016” value was <2 mmol ester hydrolyzed/min/mg protein.

Regarding `COC(=O)C(O)c1ccccc1` (stereo not shown) [Substrate 21], the “Specific activity, esterase E016” value is <2 mmol ester hydrolyzed/min/mg protein.

`CC(=O)Oc1ccccc1` [Substrate 26]: the “Specific activity, esterase E016” value is 190 mmol ester hydrolyzed/min/mg protein.

In the case of `CCOC(=O)CN.Cl` [Substrate 31], the “Specific activity, esterase E016” value was 13 mmol ester hydrolyzed/min/mg protein.

For the next data set, the system named is esterase E020. The data set is described as above. The class given is biochemical. The following applies: 1 mM substrate, pH 7.2, 7 vol % acetonitrile, 25° C. On the procedure:
as §1, §2
Regarding `CCOC(=O)C(F)(F)F` [Substrate 17], the “Specific activity, esterase E020” value is reported as 0.35 mmol ester hydrolyzed/min/mg protein.

With `COC(=O)CO` [Substrate 20], the “Specific activity, esterase E020” value is on record as <0.2 mmol ester hydrolyzed/min/mg protein.

Regarding `COC(=O)C(O)c1ccccc1` (stereo not shown) [Substrate 21], the “Specific activity, esterase E020” value is <0.2 mmol ester hydrolyzed/min/mg protein.

As to `CC(=O)Oc1ccccc1` [Substrate 26], the “Specific activity, esterase E020” value is 390 mmol ester hydrolyzed/min/mg protein.

For the compound `CCOC(=O)CN.Cl` [Substrate 31], the “Specific activity, esterase E020” value was 1.4 mmol ester hydrolyzed/min/mg protein.

Another data set relates to ThermoGen esterases. The data set is described as follows: Initial screening (pH indicator): esters as substrates of the ThermoGen esterases, statements for the esterases as a group. The class given is biochemical. The following applies: esters 1-31, initial screening. On the procedure:
as §1, §2
To evaluate the potential of the ThermoGen esterases for enantioselective reactions, the initial rates of hydrolysis of the esterases were measured using twenty-one pairs of enantiomers, Scheme 2, FIG. 10 and Tables 8-12. The ratio of these initial rates is an estimated enantioselectivity.
With `CCOC(=O)C(F)(F)F` [Substrate 17], the “quality as substrate of the ThermoGen esterases (in words)” value is listed as “best substrates”.

`COC(=O)CO` [Substrate 20]: the “quality as substrate of the ThermoGen esterases (in words)” value was “usually poor substrates”.

For `COC(=O)C(O)c1ccccc1` (stereo not shown) [Substrate 21], the “quality as substrate of the ThermoGen esterases (in words)” value is reported as “usually poor substrates”.

With `CC(=O)Oc1ccccc1` [Substrate 26], the “quality as substrate of the ThermoGen esterases (in words)” value is “best substrates”.

As for `CCOC(=O)CN.Cl` [Substrate 31], the “quality as substrate of the ThermoGen esterases (in words)” value is on record as “usually poor substrates”.

The subject of the next data set is ThermoGen esterases. As to the kind of experiment: True substrate selectivity measurements (competitive, resorufin ester), esters as substrates of the ThermoGen esterases. It counts as biochemical.
Conditions: not given
The procedure: Esterase solution (5 μL in 5 mM BES) was added to each well and the microplate was placed in the microplate reader, shaken for 5 s and the decrease in absorbance at 404 nm and the increase in absorbance at 574 nm were measured as often as permitted by the microplate reader, typically every 11 s. Data was collected for 20 minutes, at 25° C., in triplicate and was averaged. Activities were calculated from the equations above using the linear, initial portions of the curve.
However, it is faster to measure selectivity of each substrate as it competes against a third substrate, which we call a reference compound. The ratio of the two competitive reactions is the true selectivity. […] Since some substrates react rapidly while others react slowly, we require both fast-reacting and slow-reacting reference compounds. In some cases we replaced resorufin acetate with the slower reacting resorufin pivaloate or resorufin isobutyrate as reference compounds.
The true selectivity of the ThermoGen esterases toward different acyl chain length was determined using a competitive experiment. Resorufin esters were used as the competitive substrate as explained above and normalized the results to hexanoate =100, Table 7. The true selectivities were similar to the estimated selectivities.
As for `C=COC(=O)c1ccccc1` [Substrate 10, vinyl benzoate], the “quality as substrate in true selectivity measurements (in words)” value was “poor substrates”.

`C=COC(=O)C(C)(C)C` [Substrate 11, vinyl pivaloate]: the “quality as substrate in true selectivity measurements (in words)” value is given as “poor substrates”.

Tested on in a further data set: not listed separately
As to the kind of experiment: physchem.
Conditions: not given
The compound `O=c1ccc2nc3ccc(O)cc3oc-2c1` [resorufin alcohol, resorufin] displayed a pKa of 8.15.

Tested on in the next data set: not given
Assay: not given
The following applies: previously shown; cited from earlier work.
For the compound `O=[N+]([O-])c1ccc(O)cc1` [4-nitrophenol], the “pKa upon addition of 10% ethanol” value is on record as 7.17.

Still in this data set, the particulars now being: reported value; cited from earlier work.
In the case of `O=[N+]([O-])c1ccc(O)cc1` [4-nitrophenol], the pKa is on record as 7.2.

Turning to `O=S(=O)(O)CCCN1CCN(CCO)CC1` [EPPS, N-[2-hydroxylethyl]piperazine-N′-[3-propanesulfonic acid]], the pKa is on record as 8.0.

Turning to `O=S(=O)(O)CCN1CCOCC1` [MES, 2-[N-morpholino]ethanesulfonic acid], the pKa is 6.1.

On to `O=S1(=O)OC(c2ccc(O)c(Cl)c2)(c2ccc(O)c(Cl)c2)c2ccccc21` [chlorophenol red], for which the pKa is on record as 6.0.

Turning to `Cc1cc(O)c(C(C)C)cc1C1(c2cc(C(C)C)c(O)cc2C)OS(=O)(=O)c2ccccc21` [thymol blue], the pKa was 9.2.
